Assay results: patent EP3454861B1, “BENZOXAZINE OR QUINAZOLINE DERIVATIVES FOR USE IN THE TREATMENT OF ALZHEIMER'S DISEASE” (Biocodex, priority 2016, dated 2017)

What was measured:
[1] = system: protéine Tau; assay: Tau hyperphosphorylation in cortical neurons after Aβ1-42; type: cell-based, rats; conditions: Rattus norvegicus, Cortical neurone, Aβ1-42 2,5 µM, 16 h (Aβ1-42 alone 183%), read-out: hyperphosphorylation de Tau
Protocol: Des neurones corticaux de rats sont mis en culture comme dans la méthode décrite par Singer (1999) J. Neurosci. 19:2455-2463. Des rats femelles enceintes de 15 jours sont tuées par dislocation des cervicales (Rats Wistar, Janvier) et le fœtus est retiré de l'utérus. Les cortex sont prélevés et placés dans un milieu glacé de Leibovitz (L15, Panbiotech, Réf : P04-27055, lot : 9310614) contenant 2% de pénicilline (10 000 U/ml) et de streptomycine (10 mg/ml) (PS, Panbiotec, Réf : P06-07100, lot : 48101114) et 1% de sérum-albumine bovine (BSA, Panbiotech, Réf : P06-1391100, lot : H140603). Les cortex sont dissociés par trypsination (0,05% Panbiotech, Réf : P10-023100, lot : 5890314) pendant 20 minutes à 37°C. La réaction est stoppée par addition d'un milieu Eagle modifié de Dulbecco (DMEM, Panbiotech, réf P04-03600, lot : 9670913) contenant de la DNase I grade Il (0,1 mg/ml Panbiotech, Réf : P60-37780100, lot : H140508) et 10 % de sérum de veau fœtal (FCS, Invitrogen, Réf : 10270 à 098, lot : 41Q4120K). Les cellules sont dissociées mécaniquement par 3 passages à travers une pipette de 10 ml. Les cellules sont ensuite centrifugées à 515 g pendant 10 minutes à 4°C. Le surnageant est éliminé et les cellules sont remises en suspension dans un milieu de culture Neurobasal (Nb, Invitrogen, Réf : 21103, lot : 1608692) supplémenté avec 2% de B27 (Invitrogen, Réf : 17504, lot : 1589889), 2 mM de L-glutamine (Panbiotech, Réf : P04-80100, lot : 6620314), 2% de la solution PS et 10 ng/ml de facteur neurotrophique dérivé du cerveau (BDNF, PanBiotech, Réf : CB-1115002, lot : 4810114). Les cellules sont ensemencées à une densité de 30 000 cellules/puits dans des plaques de 96 puits pré-enduites de poly-L-lysine (10 ng/ml, Greiner Réf : 655930, lot : E14021HD) et cultivées à 37 °C dans une atmosphère humidifiée avec 95% d'air et 5% de CO2 pour l'évaluation de la survie des neurones (analyse de MAP2 par immuno-coloration) (6 puits/condition, 1 culture).
La préparation du peptide amyloïde β1-42 (Aβ1-42) est réalisée en suivant la procédure par Callizot et al. (2013) Neurosci. Res. 91:706-16. […]

[2] = system: GFAP; assay: ELISA of GFAP in mouse hippocampus after Aβ25-35; type: in vivo, souris
Source text: (§1) Le 1^er jour : une version « mélangée » (scrambled) du peptide amyloïde β25-35 (Sc.Aβ, témoin négatif) ou le peptide amyloïde β25-35 (Aβ25-35) est injecté par voie intra-cérébroventriculaire (ICV) (le peptide Aβ25-35 provoque l'intoxication cellulaire). Entre le 1^er jour et le 10^ème jour, les traitements sont administrés une fois par jour par voie intrapéritonéale (IP).
A la fin de la session de rétention d'évitement passif, le 10^ème jour, les animaux sont sacrifiés par décapitation. L'hippocampe et le cortex frontal sont disséqués et congelés dans l'azote liquide. L'hippocampe est utilisé pour mesurer le taux de peroxydation lipidique à l'aide d'une méthode colorimétrique et pour évaluer les taux de 4 marqueurs biochimiques par des tests ELISA. Le cortex est conservé à -80°C en attente d'analyses supplémentaires. Les plasmas sont également conservés en attente d'analyses supplémentaires. Les échantillons biologiques sont jetés après 3 mois.
Pour tous les dosages, les […] sont homogénéisés, après décongélation, dans un tampon Tris (Tris 50 mM, 150 mM NaCl, pH 7,5) et traités par ultrasons pendant 20 secondes. […] Pour chaque dosage, l'absorbance est lue à 450 nm et la concentration est calculée en utilisant la courbe standard. Les résultats sont exprimés en pg ou ng de marqueur par mg de tissu et en pourcentage de solution Sc.Aβ + véhicule. 6 échantillons par groupe (n = 36 kits ELISA) sont dosés en double.

[3] = system: modèle murin de maladie d'Alzheimer par administration du peptide amyloïde β25-35; assay: Passive avoidance test (long-term contextual memory), retention session, Aβ25-35 mouse model; type: in vivo, souris; conditions: Aβ25-35 9 nmol ICV, day 10
Source text: as §1

Compound: CCNC1=Nc2ccc(Cl)cc2C(C)(c2ccccc2)O1 (stereo not drawn) [Etifoxine, chlorhydratede 6-chloro-2-éthylamino-4-méthyl-4-phényl-4H-[3,1]benzoxazine]
- activity at 1 µM ([1]; étifoxine 1 µM): 114%
- activity at 3 µM ([1]; étifoxine 3 µM): 104%
- activity at 10 µM ([1]; étifoxine 10 µM): 97.4%
- Expression GFAP ([2]; Aβ25-35/Etifoxine 12.5 mg/kg IP): 160,4 ± 10,2 % de Sc.Aβ/V
- Expression GFAP ([2]; Aβ25-35/Etifoxine 25 mg/kg IP): 131,7 ± 4,3 % de Sc.Aβ/V
- Expression GFAP ([2]; Aβ25-35/Etifoxine 50 mg/kg IP): 129,8 ± 2,7 % de Sc.Aβ/V
- temps de fuite lors de la session de rétention, Moyenne ([3]; Etifoxine 25 mg/kg IP once daily): 22,4 ± 2,4%
- temps de fuite lors de la session de rétention, Moyenne ([3]; Etifoxine 50 mg/kg IP once daily): 21,6 ± 3,0%
- temps de latence lors la session de rétention, Moyenne ([3]; Etifoxine 12,5 mg/kg IP once daily): 208,1 ± 17,4%
